Converted amounts (≈) assume the structure as drawn. Read-outs that look alike come from different tables or passages of the source.
Assays:
Format in all cases: cell-based
[1] = system: Lactobacillus acidophilus; assay: Growth inhibition (minimum inhibitory concentration, gross turbidity); settings: read-out: Minimum Inhibitory Concentration L. acidophilus
Procedure: (§1) The ability of the phosphocholine derivatives of Examples 1-2 to inhibit growth of Candida albicans, Staphylococcus aureus, Lactobacillus acidophilus, and Gardnerella vaginale was tested. Each phosphocholine derivative (at concentrations ranging from 0 to 500 micrograms per milliliter) was dissolved into a broth media and 6 wt. % ethanol. Thereafter, 0.1 milliliter of each solution was inoculated in 1.0 milliliter of a growth media containing the microorganism of interest. The growth media was TSB media for Candida albicans and Staphylococcus aureus, MRS broth for Lactobacillus acidophilus, and NYC-3 broth enriched proteose peptone for Gardnerella vaginale. The concentration of the microorganism in the growth media was 10^4 colony forming units (“CFU”) per milliliter.
(§2) Thereafter, the gross turbidity of the media was monitored at 24, 48, and 72 hours time intervals. Gross turbidity is an indicative of growth inhibition and is determined using visual determination or a spectrophotometer. The concentration of the phosphocholine derivative at which no turbidity is detected is designated as the “minimum inhibitory concentration.” Phosphocholine derivatives having lower minimum inhibitory concentrations are generally considered to have better antimicrobial efficacy.

Gardnerella vaginale = assay: as above; settings: read-out: Minimum Inhibitory Concentration G. vaginale
Procedure: as §1, §2

Staphylococcus aureus = assay: as above; settings: read-out: Minimum Inhibitory Concentration S. aureus
Procedure: as §1, §2

Candida albicans = assay: as above; settings: read-out: Minimum Inhibitory Concentration C. albicans
Procedure: as §1, §2

[2] = system: Staphylococcus aureus (S. aureus); assay: Time-dependent inhibition (organism count)
Excerpt: (§3) Hexadecyl phosphocholine (“BRB-1”) was studied for inhibition of Candida albicans (C. albicans), Staphylococcus aureus (S. aureus), and lactobacilli. The results are shown below in Tables 3-4. Tetradecyl phosphocholine (“BRB-3”) was also studied for inhibition of C. albicans aureus, and lactobaccili.

[3] = system: Candida albicans (C. albicans); assay: Time-dependent inhibition (organism count)
Excerpt: as §3

[4] = system: L. acidophilus (lactobacilli); assay: Time-dependent inhibition (organism count); settings: for Organism Count / Percent Reduction: L. acidophilus
Excerpt: as §3

[5] = MRS broth, 10^4 CFU/ml, turbidity at 24, 48, 72 hours
[6] = NYC-3 broth, 10^4 CFU/ml, turbidity at 24, 48, 72 hours
[7] = TSB media, 10^4 CFU/ml, turbidity at 24, 48, 72 hours

CCCCCCCCCCCCCCCCOP([O-])(=S)OCC[N+](C)(C)C (stereo not shown)
MIC ([1]; 72 h): 31.2 µg/mL (≈ 73.8 µM) | MIC (Gardnerella vaginale; 72 h): 31.2 µg/mL (≈ 73.8 µM) | MIC (Staphylococcus aureus; 72 h): 31.2 µg/mL (≈ 73.8 µM) | MIC (Candida albicans; 72 h): 31.2 µg/mL (≈ 73.8 µM)

CCCCCCCCCCCCCCCCOCC(O)COP(=O)([O-])OCC[N+](C)(C)C (racemic)
MIC [1, 5]: 250 µg/mL (≈ 519 µM) | MIC (Gardnerella vaginale; [6]): 250 µg/mL (≈ 519 µM) | MIC (Staphylococcus aureus; [7]): 250 µg/mL (≈ 519 µM) | MIC (Candida albicans; [7]): 125 µg/mL (≈ 260 µM)

tetradecyl phosphocholine [BRB-3]
Organism Count ([2]; 10 μg/ml, 0 Hour): 1.4 × 10^5 CFU/ml | % Reduction ([2]; 10 μg/ml, 1 Hour): 18.3% | Organism Count ([2]; 10 μg/ml, 1 Hour): 9.8 × 10^4 CFU/ml | % Reduction ([2]; 10 μg/ml, 2 Hours): 25.8% | Organism Count ([2]; 10 μg/ml, 2 Hours): 8.9 × 10^4 CFU/ml | % Reduction ([2]; 10 μg/ml, 4 Hours): 38.3% | Organism Count ([2]; 10 μg/ml, 4 Hours): 7.4 × 10^4 CFU/ml | % Reduction ([2]; 100 μg/ml, 0 Hour): 7.1% | Organism Count ([2]; 100 μg/ml, 0 Hour): 1.3 × 10^5 CFU/ml | % Reduction ([2]; 100 μg/ml, 1 Hour): 97.9% | Organism Count ([2]; 100 μg/ml, 1 Hour): 2.9 × 10^3 CFU/ml | % Reduction ([2]; 100 μg/ml, 2 Hours): 99.9% | Organism Count ([2]; 100 μg/ml, 2 Hours): 1.1 × 10^2 CFU/ml | % Reduction ([2]; 100 μg/ml, 4 Hours): 99.99% | % Reduction ([3]; 10 μg/ml, 0 Hour): 2.7% | Organism Count ([3]; 10 μg/ml, 0 Hour): 7.1 × 10^4 CFU/ml | % Reduction ([3]; 10 μg/ml, 1 Hour): 20.5% | Organism Count ([3]; 10 μg/ml, 1 Hour): 5.8 × 10^4 CFU/ml | % Reduction ([3]; 10 μg/ml, 2 Hours): 30.1% | Organism Count ([3]; 10 μg/ml, 2 Hours): 5.1 × 10^4 CFU/ml | % Reduction ([3]; 10 μg/ml, 4 Hours): 52.0% | Organism Count ([3]; 10 μg/ml, 4 Hours): 3.5 × 10^4 CFU/ml | % Reduction ([3]; 100 μg/ml, 0 Hour): 26.0% | Organism Count ([3]; 100 μg/ml, 0 Hour): 7.4 × 10^4 CFU/ml | % Reduction ([3]; 100 μg/ml, 1 Hour): 43.0% | Organism Count ([3]; 100 μg/ml, 1 Hour): 5.7 × 10^4 CFU/ml | % Reduction ([3]; 100 μg/ml, 2 Hours): 51.0% | Organism Count ([3]; 100 μg/ml, 2 Hours): 4.9 × 10^4 CFU/ml | % Reduction ([3]; 100 μg/ml, 4 Hours): 46.0% | Organism Count ([3]; 100 μg/ml, 4 Hours): 5.4 × 10^4 CFU/ml | Organism Count ([4]; 10 μg/ml, 0 Hour): 3.1 × 10^5 CFU/ml | Percent Reduction ([4]; 10 μg/ml, 0 Hour): 16.2% | Organism Count ([4]; 10 μg/ml, 1 Hour): 2.9 × 10^5 CFU/ml | Percent Reduction ([4]; 10 μg/ml, 1 Hour): 21.6% | Organism Count ([4]; 10 μg/ml, 2 Hours): 2.4 × 10^5 CFU/ml | Percent Reduction ([4]; 10 μg/ml, 2 Hours): 35.1% | Organism Count ([4]; 10 μg/ml, 4 Hours): 2.3 × 10^5 CFU/ml | Percent Reduction ([4]; 10 μg/ml, 4 Hours): 37.8% | Organism Count ([4]; 100 μg/ml, 0 Hour): 4.5 × 10^5 CFU/ml | Percent Reduction ([4]; 100 μg/ml, 0 Hour): 88.5% | Percent Reduction ([4]; 100 μg/ml, 1 Hour): 99.99% | Inhibition of lactobacilli (in words) ([4]; Tables 4 and 5, ascribed to organism instability in the media and the protocol): some inhibtion

CCCCCCCCCCCCCCCCOP(=O)([O-])OCC[N+](C)(C)C [BRB-1, hexadecyl phosphocholine]
% Reduction ([2]; 10 μg/ml, 0 Hour): 18.5% | Organism Count ([2]; 10 μg/ml, 0 Hour): 5.3 × 10^4 CFU/ml | % Reduction ([2]; 10 μg/ml, 1 Hour): 98.9% | Organism Count ([2]; 10 μg/ml, 1 Hour): 7.3 × 10^2 CFU/ml | % Reduction ([2]; 10 μg/ml, 2 Hours): 99.91% | Organism Count ([2]; 10 μg/ml, 2 Hours): 60 CFU/ml | % Reduction ([2]; 10 μg/ml, 4 Hours): 99.98% | % Reduction ([2]; 100 μg/ml, 0 Hour): 39.2% | Organism Count ([2]; 100 μg/ml, 0 Hour): 4.8 × 10^4 CFU/ml | % Reduction ([2]; 100 μg/ml, 1 Hour): 99.8% | Organism Count ([2]; 100 μg/ml, 1 Hour): 1.4 × 10^2 CFU/ml | % Reduction ([2]; 100 μg/ml, 2 Hours): 99.97% | Organism Count ([2]; 100 μg/ml, 2 Hours): 20 CFU/ml | % Reduction ([2]; 100 μg/ml, 4 Hours): 99.99% | Organism Count ([3]; 10 μg/ml, 0 Hour): 8.4 × 10^5 CFU/ml | % Reduction ([3]; 10 μg/ml, 1 Hour): 68.0% | Organism Count ([3]; 10 μg/ml, 1 Hour): 2.3 × 10^5 CFU/ml | % Reduction ([3]; 10 μg/ml, 2 Hours): 99.7% | Organism Count ([3]; 10 μg/ml, 2 Hours): 2.1 × 10^3 CFU/ml | % Reduction ([3]; 10 μg/ml, 4 Hours): 99.99% | Organism Count ([3]; 10 μg/ml, 4 Hours): 50 CFU/ml | % Reduction ([3]; 100 μg/ml, 0 Hour): 27.5% | Organism Count ([3]; 100 μg/ml, 0 Hour): 2.9 × 10^5 CFU/ml | % Reduction ([3]; 100 μg/ml, 1 Hour): 70.0% | Organism Count ([3]; 100 μg/ml, 1 Hour): 1.2 × 10^5 CFU/ml | % Reduction ([3]; 100 μg/ml, 2 Hours): 99.8% | Organism Count ([3]; 100 μg/ml, 2 Hours): 8.0 × 10^2 CFU/ml | % Reduction ([3]; 100 μg/ml, 4 Hours): 99.9% | Organism Count ([3]; 100 μg/ml, 4 Hours): 3.8 × 10^2 CFU/ml | Organism Count ([4]; 1 μg/ml, 0 Hour): 7.0 × 10^4 CFU/ml | Percent Reduction ([4]; 1 μg/ml, 0 Hour): 6.7% | Organism Count ([4]; 1 μg/ml, 1 Hour): 8.6 × 10^4 CFU/ml | Organism Count ([4]; 1 μg/ml, 2 Hours): 7.6 × 10^4 CFU/ml | Organism Count ([4]; 1 μg/ml, 4 Hours): 6.7 × 10^4 CFU/ml | Percent Reduction ([4]; 1 μg/ml, 4 Hours): 10.7% | Organism Count ([4]; 10 μg/ml, 0 Hour): 1.8 × 10^5 CFU/ml | Percent Reduction ([4]; 10 μg/ml, 0 Hour): 18.2% | Organism Count ([4]; 10 μg/ml, 1 Hour): 20 CFU/ml | Percent Reduction ([4]; 10 μg/ml, 1 Hour): 99.99% | Percent Reduction ([4]; 10 μg/ml, 6 Hours): 99.99% | Organism Count ([4]; 100 μg/ml, 0 Hour): 1.5 × 10^5 CFU/ml | Percent Reduction ([4]; 100 μg/ml, 0 Hour): 31.8% | Organism Count ([4]; 100 μg/ml, 1 Hour): 70 CFU/ml | Percent Reduction ([4]; 100 μg/ml, 1 Hour): 99.97% | Percent Reduction ([4]; 100 μg/ml, 6 Hours): 99.99% | MIC [1, 5]: 125 µg/mL (≈ 307 µM) | MIC (Gardnerella vaginale; [6]): 31.2 µg/mL (≈ 76.7 µM) | MIC (Staphylococcus aureus; [7]): 125 µg/mL (≈ 307 µM) | MIC (Candida albicans; [7]): 15.6 µg/mL (≈ 38.3 µM)

CCCCCCCCCCCCCCOP(=O)([O-])OCC[N+](C)(C)C
MIC [1, 5]: 250 µg/mL (≈ 659 µM) | MIC (Gardnerella vaginale; [6]): 250 µg/mL (≈ 659 µM) | MIC (Staphylococcus aureus; [7]): 250 µg/mL (≈ 659 µM) | MIC (Candida albicans; [7]): 62.5 µg/mL (≈ 165 µM)

— patent US8703179B2, “Mucosal formulation” (Kimberly-Clark Worldwide, Inc., priority 2006, dated 2014)
